The target in assay [1] is T1, Eukaryotic initiation factor 4A-III (Homo sapiens, UniProt P38919). Briefly: Inhibition of MLN51-induced full length recombinant human N-terminal His6/SUMO-tagged eIF4A3 RNA dependent ATPase activity expressed in Escherichia coli BL21(DE3) using 60 ug/ml single stranded poly(U) RNA as substrate after 30 mins by ADP-Glo luminescence assay.
In assay [2] the target is Eukaryotic initiation factor 4A-I (Homo sapiens, UniProt P60842). Briefly: Inhibition of eIF4G-induced full length recombinant human N-terminal His6/SUMO-tagged eIF4A1 RNA dependent ATPase activity expressed in Escherichia coli BL21(DE3) using single stranded poly(U) RNA as substrate after 40 mins by ADP-Glo luminescence assay. On the technique in general: ADP-Glo turns the ADP formed in a reaction into a luminescent signal.

The target of assay [3] is T1, Eukaryotic initiation factor 4A-III.
Description: Binding affinity to full length recombinant human N-terminal His6/SUMO-tagged eIF4A3 expressed in Escherichia coli BL21(DE3) assessed as change in Gibbs free energy by isothermal titration calorimetric method
For assay [4] the target is unchanged. Briefly: Binding affinity to full length recombinant human N-terminal His6/SUMO-tagged eIF4A3 expressed in Escherichia coli BL21(DE3) administered for 60 to 120 secs by surface plasmon resonance biosensing assay.
The target of assay [5] is U5 small nuclear ribonucleoprotein 200 kDa helicase (Homo sapiens, UniProt O75643). Briefly: Inhibition of full length recombinant human N-terminal His-tagged BRR2 RNA dependent ATPase activity expressed in baculovirus infected Sf9 insect cells using single stranded poly(U) RNA as substrate after 30 mins by ADP-Glo luminescence assay.
Assay [6] has as its target T1, Eukaryotic initiation factor 4A-III. This is another data set of the same source.
Description: Binding affinity to full length recombinant human N-terminal His6/SUMO-tagged eIF4A3 expressed in Escherichia coli BL21(DE3) assessed as change in enthalpy by isothermal titration calorimetric method
For assay [7] the target is unchanged. The source holds these as a separate data set.
Description: Binding affinity to full length recombinant human N-terminal His6/SUMO-tagged eIF4A3 expressed in Escherichia coli BL21(DE3) assessed as dissociation half-life administered for 60 to 120 secs by surface plasmon resonance biosensing assay
For assay [8] the target is unchanged. This is another data set of the same source.
Description: Binding affinity to full length recombinant human N-terminal His6/SUMO-tagged eIF4A3 expressed in Escherichia coli BL21(DE3) assessed as change in entropy by isothermal titration calorimetric method
Assay [9] has the same target. The experiment in a line: Inhibition of MLN51-induced full length recombinant human N-terminal His6/SUMO-tagged eIF4A3 expressed in Escherichia coli BL21(DE3) using 1.5 ug/ml single stranded poly(U) RNA after 45 mins by ADP-Glo luminescence assay.
For assay [10] the target is unchanged. The experiment in a line: Binding affinity to full length recombinant human N-terminal His6/SUMO-tagged eIF4A3 expressed in Escherichia coli BL21(DE3) by isothermal titration calorimetric method.
For assay [11], the target named is Eukaryotic initiation factor 4A-II (Homo sapiens, UniProt Q14240). The experiment in a line: Inhibition of eIF4G-induced eIF4A2 (unknown origin) RNA dependent ATPase activity expressed in Escherichia coli BL21(DE3) using single stranded poly(U) RNA as substrate after 40 mins by ADP-Glo luminescence assay.
In assay [12] the target is T1, Eukaryotic initiation factor 4A-III. Briefly: ATP competitive inhibition of MLN51-induced full length recombinant human N-terminal His6/SUMO-tagged eIF4A3 expressed in Escherichia coli BL21(DE3) using varying ATP levels after 30 mins by ADP-Glo luminescence assay.
For assay [13], the target named is T2, ATP-dependent RNA helicase DHX29 (Homo sapiens, UniProt Q7Z478).
T2 sequence (Q7Z478 whole entry): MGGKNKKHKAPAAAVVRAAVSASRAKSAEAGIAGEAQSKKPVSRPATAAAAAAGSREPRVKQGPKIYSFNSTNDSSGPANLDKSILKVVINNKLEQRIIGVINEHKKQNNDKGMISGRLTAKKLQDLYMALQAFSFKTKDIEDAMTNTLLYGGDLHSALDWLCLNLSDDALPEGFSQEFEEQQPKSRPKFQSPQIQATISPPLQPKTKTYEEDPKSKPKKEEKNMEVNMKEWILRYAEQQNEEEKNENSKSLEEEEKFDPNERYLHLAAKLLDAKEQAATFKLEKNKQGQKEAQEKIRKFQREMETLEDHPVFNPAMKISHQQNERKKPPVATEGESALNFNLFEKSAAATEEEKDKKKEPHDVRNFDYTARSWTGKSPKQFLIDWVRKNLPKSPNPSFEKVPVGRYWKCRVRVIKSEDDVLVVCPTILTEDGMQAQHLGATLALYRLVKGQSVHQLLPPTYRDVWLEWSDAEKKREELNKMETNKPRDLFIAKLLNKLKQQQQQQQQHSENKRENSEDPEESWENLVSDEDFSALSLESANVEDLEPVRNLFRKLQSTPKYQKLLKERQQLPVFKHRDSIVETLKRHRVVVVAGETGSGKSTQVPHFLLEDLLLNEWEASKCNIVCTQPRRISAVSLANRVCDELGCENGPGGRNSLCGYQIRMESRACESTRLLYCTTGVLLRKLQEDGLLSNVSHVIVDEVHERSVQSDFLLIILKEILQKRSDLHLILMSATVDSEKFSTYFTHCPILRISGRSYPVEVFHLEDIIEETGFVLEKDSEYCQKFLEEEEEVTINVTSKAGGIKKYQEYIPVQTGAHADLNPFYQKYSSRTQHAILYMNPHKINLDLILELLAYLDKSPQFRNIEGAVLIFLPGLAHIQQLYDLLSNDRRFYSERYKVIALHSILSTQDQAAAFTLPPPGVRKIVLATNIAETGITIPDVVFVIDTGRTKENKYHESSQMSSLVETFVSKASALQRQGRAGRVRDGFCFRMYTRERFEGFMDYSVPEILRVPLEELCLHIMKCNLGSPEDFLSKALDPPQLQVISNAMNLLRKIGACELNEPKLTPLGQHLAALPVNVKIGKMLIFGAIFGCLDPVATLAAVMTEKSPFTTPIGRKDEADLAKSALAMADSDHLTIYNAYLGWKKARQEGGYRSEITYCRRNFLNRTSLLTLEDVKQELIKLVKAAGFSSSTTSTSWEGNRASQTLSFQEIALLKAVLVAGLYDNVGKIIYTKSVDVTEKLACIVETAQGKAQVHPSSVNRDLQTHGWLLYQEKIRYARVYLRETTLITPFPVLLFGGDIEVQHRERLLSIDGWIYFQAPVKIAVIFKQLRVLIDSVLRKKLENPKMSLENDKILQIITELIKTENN
Briefly: Inhibition of full length recombinant human N-terminal FLAG-His-tagged DHX29 RNA dependent ATPase activity expressed in baculovirus infected Sf9 insect cells using single stranded poly(U) RNA as substrate after 30 mins by ADP-Glo luminescence assay.

Some results are limits rather than exact numbers.

One may read the IC50 as the concentration that inhibits the measured activity by half. Broadly, the Kd is a measure of binding affinity in units of concentration. As usually defined, the Ki is a dissociation constant, usually derived from enzyme kinetics or from competition with a known ligand.

T1 sequence (P38919 whole entry): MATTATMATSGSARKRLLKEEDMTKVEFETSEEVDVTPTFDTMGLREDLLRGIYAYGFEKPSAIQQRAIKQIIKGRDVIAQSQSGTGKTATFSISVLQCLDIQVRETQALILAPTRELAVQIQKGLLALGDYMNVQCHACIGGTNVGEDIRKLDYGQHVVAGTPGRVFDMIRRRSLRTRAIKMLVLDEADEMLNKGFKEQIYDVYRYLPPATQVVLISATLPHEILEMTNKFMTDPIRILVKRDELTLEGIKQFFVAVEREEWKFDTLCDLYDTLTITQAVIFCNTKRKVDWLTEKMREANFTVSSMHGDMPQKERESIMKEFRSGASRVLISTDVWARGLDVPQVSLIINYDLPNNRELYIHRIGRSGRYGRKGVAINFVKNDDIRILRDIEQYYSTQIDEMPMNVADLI
Chain of Eukaryotic initiation factor 4A-I (P60842 whole entry): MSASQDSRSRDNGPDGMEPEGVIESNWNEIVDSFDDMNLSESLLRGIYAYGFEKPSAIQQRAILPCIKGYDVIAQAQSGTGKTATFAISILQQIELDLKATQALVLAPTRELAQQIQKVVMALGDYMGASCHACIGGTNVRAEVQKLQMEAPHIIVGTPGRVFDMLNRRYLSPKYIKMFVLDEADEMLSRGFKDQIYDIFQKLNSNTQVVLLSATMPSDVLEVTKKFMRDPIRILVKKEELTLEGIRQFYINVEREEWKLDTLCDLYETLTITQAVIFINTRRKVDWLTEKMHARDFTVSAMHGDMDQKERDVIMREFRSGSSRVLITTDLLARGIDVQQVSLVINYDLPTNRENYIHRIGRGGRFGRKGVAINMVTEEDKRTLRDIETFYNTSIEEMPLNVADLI
Chain of U5 small nuclear ribonucleoprotein 200 kDa helicase (O75643 whole entry): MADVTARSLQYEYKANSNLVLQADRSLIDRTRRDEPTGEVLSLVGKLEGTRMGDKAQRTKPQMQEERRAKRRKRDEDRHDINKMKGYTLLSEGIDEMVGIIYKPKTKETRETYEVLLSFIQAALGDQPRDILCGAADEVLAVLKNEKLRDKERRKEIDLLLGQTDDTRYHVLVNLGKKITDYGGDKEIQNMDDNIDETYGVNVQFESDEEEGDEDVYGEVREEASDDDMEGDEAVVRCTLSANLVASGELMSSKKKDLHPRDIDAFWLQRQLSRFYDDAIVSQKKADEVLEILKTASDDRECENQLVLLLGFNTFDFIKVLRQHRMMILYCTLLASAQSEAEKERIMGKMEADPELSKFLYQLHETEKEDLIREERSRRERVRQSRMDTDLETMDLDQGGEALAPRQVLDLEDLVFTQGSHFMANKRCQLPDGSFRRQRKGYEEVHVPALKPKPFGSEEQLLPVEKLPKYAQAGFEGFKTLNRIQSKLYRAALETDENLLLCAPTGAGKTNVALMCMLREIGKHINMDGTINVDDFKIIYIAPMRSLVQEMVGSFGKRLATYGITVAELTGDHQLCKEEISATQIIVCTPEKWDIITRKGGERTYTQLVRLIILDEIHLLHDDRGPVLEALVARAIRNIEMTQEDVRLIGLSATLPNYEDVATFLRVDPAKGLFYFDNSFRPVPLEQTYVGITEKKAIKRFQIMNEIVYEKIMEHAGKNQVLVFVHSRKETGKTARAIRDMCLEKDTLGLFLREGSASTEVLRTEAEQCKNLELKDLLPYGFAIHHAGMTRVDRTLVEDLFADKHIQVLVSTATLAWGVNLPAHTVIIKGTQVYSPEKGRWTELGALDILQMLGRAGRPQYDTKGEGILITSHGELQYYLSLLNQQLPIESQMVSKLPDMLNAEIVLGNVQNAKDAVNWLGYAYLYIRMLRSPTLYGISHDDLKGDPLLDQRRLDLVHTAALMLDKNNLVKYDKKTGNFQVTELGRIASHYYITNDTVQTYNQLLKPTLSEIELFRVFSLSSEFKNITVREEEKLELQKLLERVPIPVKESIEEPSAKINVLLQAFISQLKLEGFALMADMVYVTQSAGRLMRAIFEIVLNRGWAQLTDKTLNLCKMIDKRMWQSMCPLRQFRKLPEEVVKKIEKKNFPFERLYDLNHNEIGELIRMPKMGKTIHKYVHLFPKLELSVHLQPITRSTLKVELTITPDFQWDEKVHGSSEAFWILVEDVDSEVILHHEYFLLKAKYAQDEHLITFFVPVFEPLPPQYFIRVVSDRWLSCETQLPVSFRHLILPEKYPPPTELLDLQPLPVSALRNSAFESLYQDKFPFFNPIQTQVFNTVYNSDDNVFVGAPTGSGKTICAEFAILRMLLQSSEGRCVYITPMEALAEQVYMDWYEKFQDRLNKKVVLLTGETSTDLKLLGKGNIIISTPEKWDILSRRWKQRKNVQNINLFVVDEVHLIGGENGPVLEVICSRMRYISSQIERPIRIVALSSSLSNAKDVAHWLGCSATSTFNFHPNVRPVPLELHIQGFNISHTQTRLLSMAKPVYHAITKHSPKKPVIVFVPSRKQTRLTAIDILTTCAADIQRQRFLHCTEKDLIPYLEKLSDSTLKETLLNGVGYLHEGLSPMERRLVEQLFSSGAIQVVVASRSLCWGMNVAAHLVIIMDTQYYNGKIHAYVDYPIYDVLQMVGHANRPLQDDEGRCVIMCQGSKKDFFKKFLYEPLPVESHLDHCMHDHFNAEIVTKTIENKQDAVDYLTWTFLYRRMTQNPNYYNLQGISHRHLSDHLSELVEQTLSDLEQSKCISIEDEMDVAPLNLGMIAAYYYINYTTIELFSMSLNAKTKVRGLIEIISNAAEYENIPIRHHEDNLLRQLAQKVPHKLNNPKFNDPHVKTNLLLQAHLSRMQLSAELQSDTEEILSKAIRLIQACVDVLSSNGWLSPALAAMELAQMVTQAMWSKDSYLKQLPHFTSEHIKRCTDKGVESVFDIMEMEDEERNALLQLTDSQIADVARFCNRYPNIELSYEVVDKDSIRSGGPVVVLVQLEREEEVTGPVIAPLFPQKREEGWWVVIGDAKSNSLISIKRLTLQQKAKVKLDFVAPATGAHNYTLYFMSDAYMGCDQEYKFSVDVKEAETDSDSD
Chain of Eukaryotic initiation factor 4A-II (Q14240 whole entry): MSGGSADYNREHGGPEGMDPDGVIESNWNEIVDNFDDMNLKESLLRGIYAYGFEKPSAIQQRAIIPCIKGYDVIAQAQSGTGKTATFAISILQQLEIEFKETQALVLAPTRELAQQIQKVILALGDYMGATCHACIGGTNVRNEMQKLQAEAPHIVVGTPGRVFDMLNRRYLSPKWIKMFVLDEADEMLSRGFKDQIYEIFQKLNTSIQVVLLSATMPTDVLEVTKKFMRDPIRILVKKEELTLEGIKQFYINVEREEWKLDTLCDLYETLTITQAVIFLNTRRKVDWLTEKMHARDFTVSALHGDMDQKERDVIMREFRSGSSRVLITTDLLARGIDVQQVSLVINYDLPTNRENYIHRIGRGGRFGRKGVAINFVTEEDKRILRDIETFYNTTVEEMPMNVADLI

In the case of `CCc1ccc2cc(C(=O)O)[nH]c2c1`, the IC50 in assay [1] was more than 100 µM.
Regarding `CC(C)c1ccc2cc(C(=O)O)[nH]c2c1F`, the IC50 is more than 100 µM in assay [2] and 6.9 µM in assay [1].
In the case of `COC(=O)c1cc2ccc(C(C)C)cc2[nH]1`, the IC50 in assay [1] was more than 100 µM.
Still for that read-out and setting: next, `CC(C)c1cccc2cc(C(=O)O)[nH]c12`: more than 100 µM; `CC(C)c1ccc2c(F)c(C(=O)O)[nH]c2c1`: 20 µM; `CC(C)c1cc2[nH]c(C(=O)O)cc2cc1F`: 30 µM.
In the case of `CC(C)c1ccc2cc(C(=O)O)n(C)c2c1`, the IC50 in assay [1] is more than 100 µM.
For `O=C(O)c1cc2ccc(Cl)cc2[nH]1`, the IC50 in assay [1] is more than 100 µM.
As to `CC(C)c1cc(Cl)c2cc(C(=O)O)[nH]c2c1F`, the deltaG in [3] is -9.9 kcal/mol. In addition, the Kd in assay [4] came to 0.2 µM; in [10] it was 0.062 µM. Further, the IC50 is more than 100 µM in [2]; more than 100 µM in assay [5]; 0.36 µM in [9]; 0.97 µM in [1]; more than 100 µM in assay [11]; more than 100 µM in assay [13]. The same compound had a deltaH in [6] of -26 kcal/mol. The T1/2 in [7] was 8.9 s. Besides, the -TdeltaS in assay [8] is 16.1 kcal/mol. Also, in assay [12], the inhibitory constant (Ki) was determined as 0.43 µM.
For `CC(C)c1cc(F)c2cc(C(=O)O)[nH]c2c1`, in [1], the IC50 worked out at 5 µM.
Consider `CC(C)c1ccc2cc(C(=O)O)[nH]c2c1Cl`, for which the IC50 in [1] is more than 100 µM.
Turning to `C[C@H]1C[C@@]2(O[C@H]3C[C@H]4[C@@H]5CC[C@H]6C[C@H](O)CC[C@]6(C)[C@H]5[C@@H](O)C[C@]4(C)[C@H]3[C@@]2(C)O)OC1(C)C` [HIPPURISTANOL], the Kd in assay [4] stood at 50 µM. Further, the IC50 in assay [2] was 3.1 µM; in [5] it was more than 30 µM; in assay [1], 40 µM; in assay [11], 18 µM; in assay [13], more than 30 µM. In assay [7], this compound yielded a T1/2 of 12.2 s.
Consider `CC(C)c1ccc2cc(C(=O)O)[nH]c2c1`, for which the Kd in assay [4] was found to be 5.4 µM. The IC50 in assay [1] is 27 µM.
With `Cc1ccc2cc(C(=O)O)[nH]c2c1`, the IC50 in assay [1] is more than 100 µM.
`CC(C)c1ccc2cc(C(N)=O)[nH]c2c1`: the IC50 in [1] is more than 100 µM.
On to `CC(C)c1ccc2cc(-c3nnn[nH]3)[nH]c2c1`, for which the IC50 in assay [1] came to 30 µM.
Turning to `CC(C)c1ccc2[nH]c(C(=O)O)cc2c1`, the IC50 in assay [1] is more than 100 µM.
`CC(C)c1cc(Cl)c2cc(C(=O)O)[nH]c2c1`: the IC50 was more than 100 µM in [2] and 1.9 µM in assay [1].

Source of the values: ChEMBL document CHEMBL4004889, “Discovery of selective ATP-competitive eIF4A3 inhibitors” (Bioorg Med Chem, 2017).
